The results in this text go back to PMC10878397, “Development of Potent Dual BET/HDAC Inhibitors via Pharmacophore Merging and Structure-Guided Optimization” (ACS Chemical Biology, 2024).

Values joined by “and” are separate entries in the source; they are usually repeats but may differ in a detail not shown here. Identical values can stand only once. Like-named read-outs stand apart in the source and are kept apart here.

One assay deals with HCC2429 cells. The assay can be described thus: CellTiter-Glo cell viability assay. The assay is classed as cell-based. The conditions noted are these: Homo sapiens, HCC2429, 72 h; treatment for 3 days. The protocol: (§1) PDAC cell line PaTu8988T was obtained from ATCC and cultured in Dulbecco’s modified Eagle’s medium (DMEM) containing 10% FBS, 25 mM glucose, […], 1 mM sodium pyruvate, and 1% penicillin–streptomycin. Nut midline carcinoma cell line HCC2429 was kindly provided by Lead Discovery Center GmbH (Dortmund, Germany) and was cultured in RPMI1640 medium containing 10% FBS, 2 mM L-glutamine, and 1% penicillin–streptomycin. Cell line PaTu8988T was authenticated using the Multiplex human Cell line Authentication Test (MCA) by Multiplexion GmbH, and cell line HCC2429 was authenticated using short tandem repeat (STR) profiling.
(§2) The assays were performed using Promega’s CellTiter-Glo Luminescent Cell Viability Assay kit (Cat. #G7571). First, compounds dissolved in DMSO were printed in 96-well plates (Corning) by using a Tecan D300e digital dispenser. Then, cells were seeded into the compound-printed plates using a Thermo Multidrop reagent dispenser. 72 h later, one volume of diluted CellTiter-Glo reagent (1:4 dilution with PBS) was added to individual wells by using the Thermo Multidrop reagent dispenser again. Plates were shaken for 2 min and incubated for 10 min in the dark. Luminescent signals were read by using a Tecan Spark Multimode Microplate Reader. The values were normalized to the DMSO control wells and presented as a percentage of cell viability. Dose–response curves were drawn with GraphPad Prism 8.
On the technique in general: Cellular ATP, detected with luciferase, serves as a proxy for viable cell number.

Another assay relates to PaTu8988T cells. The assay can be described thus: CellTiter-Glo cell viability assay. The assay is classed as cell-based. As to conditions: Homo sapiens, PaTu 8988t, 72 h; treatment for 3 days. As to the method:
as §1, §2

In assay [1] the target is T1, BRD4 BD1 (Homo sapiens, UniProt O60885). The assay can be described thus: DSF thermal shift assay. Format: binding. More on the design: purchased in-house (SGC Frankfurt recombinant bromodomain DSF panel). As to conditions: for Mean Tm BRD4 (1), bromodomain panel: selectivity panel, technical triplicates. As to the method: (§3) The effects of inhibitor binding on the apparent melting temperature of recombinant bromodomains were determined by DSF in a 96-well plate (Starlab) at a protein concentration of 2 μM with 10 μΜ compound in buffer containing 25 mM HEPES, pH 7.5, 150 mM NaCl, and 0.5 mM TCEP. […] Protein unfolding profiles were recorded using an MX3005P real-time qPCR instrument (Agilent; excitation/emission filters = 492/610 nm) while increasing the temperature from 25 to 95 °C at a heating rate of 3 °C/min. Tm values were calculated after fitting the fluorescence curves to the Boltzmann equation. Differences in melting temperature upon compound binding are given as ΔTm = Tm (protein with inhibitor) – Tm (protein with DMSO control). Measurements were performed in triplicates.

The next assay deals with BRD4 BD2 (Homo sapiens, UniProt O60885). As to the kind of experiment: DSF thermal shift assay. Details: purchased in-house (SGC Frankfurt recombinant bromodomain DSF panel). As to conditions: for Mean Tm BRD4 (2), bromodomain panel: selectivity panel, technical triplicates. The assay is classed as binding. The protocol: as §3
Assay [2] addresses T1, BRD4 BD1. As to the kind of experiment: NanoBRET target engagement assay (HEK293T). Format: cell-based. Details: BRD4 bromodomains and full-length HDACs were obtained as plasmids cloned in-frame with a terminal NanoLuc fusion; host or cells: HEK293T. As to conditions: intact cells. As to the method:
The assay was performed as described previously.[17],[59] In brief, BRD4 bromodomains and full-length HDACs were obtained as plasmids cloned in-frame with a terminal NanoLuc fusion (Promega). Plasmids were transfected into HEK293T cells using FuGENE HD (Promega, E2312), and proteins were allowed to express for 20 h. Serially diluted inhibitor and the corresponding NanoBRET Tracer (Promega) at a concentration determined previously as the tracer KD, app were pipetted into white 384-well plates (Greiner #781207) for BRD assays or white 96-well plates (Corning #3600) for HDAC using an Echo acoustic dispenser (Labcyte). The corresponding protein-transfected cells were added and reseeded at a density of 2 × 10^5 cells/mL after trypsinization and resuspended in Opti-MEM without phenol red (Life Technologies). The system was allowed to equilibrate for 2 h at 37 °C/5% CO2 prior to BRET measurements. To measure BRET, NanoBRET NanoGlo substrate + Extracellular NanoLuc Inhibitor (Promega, N2540) was added as per the manufacturer’s protocol, and filtered luminescence was measured on a PHERAstar plate reader (BMG Labtech) equipped with a luminescence filter pair (450 nm BP filter (donor) and 610 nm LP filter (acceptor)). For lysed-mode NanoBRET experiments, digitonin (Promega, #G9441) was added as per the manufacturer’s instructions to a final concentration of […].

For the next assay, the target named is HDAC1 (Homo sapiens, UniProt Q13547). As to the kind of experiment: NanoBRET target engagement assay (HEK293T). Details: BRD4 bromodomains and full-length HDACs were obtained as plasmids cloned in-frame with a terminal NanoLuc fusion; host or cells: HEK293T. Format: cell-based. The protocol:
(§4) The assay was performed as described previously.[17],[59] In brief, BRD4 bromodomains and full-length HDACs were obtained as plasmids cloned in-frame with a terminal NanoLuc fusion (Promega). Plasmids were transfected into HEK293T cells using FuGENE HD (Promega, E2312), and proteins were allowed to express for 20 h. […] The corresponding protein-transfected cells were added and reseeded at a density of 2 × 10^5 cells/mL after trypsinization and resuspended in Opti-MEM without phenol red (Life Technologies). The system was allowed to equilibrate for 2 h at 37 °C/5% CO2 prior to BRET measurements. […] For lysed-mode NanoBRET experiments, digitonin (Promega, #G9441) was added as per the manufacturer’s instructions to a final concentration of […].
On the technique in general: BRET reads energy transfer from a luciferase to a nearby fluorophore.

A further assay addresses HDAC2 (Homo sapiens, UniProt Q92769). The assay can be described thus: NanoBRET target engagement assay (HEK293T). Format: cell-based. Details: BRD4 bromodomains and full-length HDACs were obtained as plasmids cloned in-frame with a terminal NanoLuc fusion; host or cells: HEK293T. As to the method:
as §4

The target in a further assay is HDAC3 (Homo sapiens, UniProt O15379). The assay can be described thus: NanoBRET target engagement assay (HEK293T). The assay is classed as cell-based. More on the design: BRD4 bromodomains and full-length HDACs were obtained as plasmids cloned in-frame with a terminal NanoLuc fusion; host or cells: HEK293T. As to conditions: intact cells. As to the method:
as §4

The IC50 is the concentration that inhibits the measured activity by half. Lower therefore signals greater potency in that assay. In general, ΔTm refers to the change in melting temperature against a reference sample. As usually defined, the EC50 is the concentration at which the effect is half-maximal. Low readings indicate greater potency, high ones weaker potency.

HDAC3, sequence (O15379 whole entry, the tested form may be a part): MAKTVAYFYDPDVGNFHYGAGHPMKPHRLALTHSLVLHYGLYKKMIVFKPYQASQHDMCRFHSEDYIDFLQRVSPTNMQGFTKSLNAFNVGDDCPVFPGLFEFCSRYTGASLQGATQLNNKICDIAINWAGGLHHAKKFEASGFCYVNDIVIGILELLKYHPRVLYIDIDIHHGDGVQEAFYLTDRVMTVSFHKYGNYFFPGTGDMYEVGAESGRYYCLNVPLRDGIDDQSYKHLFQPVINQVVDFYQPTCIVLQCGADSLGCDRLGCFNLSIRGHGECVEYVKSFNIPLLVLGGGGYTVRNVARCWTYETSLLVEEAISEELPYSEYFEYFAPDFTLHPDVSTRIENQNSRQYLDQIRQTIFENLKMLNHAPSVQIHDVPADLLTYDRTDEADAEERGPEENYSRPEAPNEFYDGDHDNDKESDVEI
HDAC2, sequence (Q92769 whole entry, the tested form may be a part): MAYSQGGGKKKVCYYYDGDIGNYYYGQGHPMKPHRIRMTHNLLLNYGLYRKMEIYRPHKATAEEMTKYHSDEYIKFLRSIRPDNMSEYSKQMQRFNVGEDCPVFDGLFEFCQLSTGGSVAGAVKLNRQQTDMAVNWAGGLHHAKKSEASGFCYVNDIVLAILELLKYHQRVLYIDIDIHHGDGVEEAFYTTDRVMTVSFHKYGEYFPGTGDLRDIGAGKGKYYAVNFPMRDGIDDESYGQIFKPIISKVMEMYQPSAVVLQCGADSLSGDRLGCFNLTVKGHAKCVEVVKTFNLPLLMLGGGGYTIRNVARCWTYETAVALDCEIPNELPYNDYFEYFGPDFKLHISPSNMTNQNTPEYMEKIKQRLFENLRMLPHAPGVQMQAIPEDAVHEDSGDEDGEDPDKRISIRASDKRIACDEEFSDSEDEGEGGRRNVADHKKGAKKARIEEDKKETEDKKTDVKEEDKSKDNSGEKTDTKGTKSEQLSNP
HDAC1, sequence (Q13547 whole entry, the tested form may be a part): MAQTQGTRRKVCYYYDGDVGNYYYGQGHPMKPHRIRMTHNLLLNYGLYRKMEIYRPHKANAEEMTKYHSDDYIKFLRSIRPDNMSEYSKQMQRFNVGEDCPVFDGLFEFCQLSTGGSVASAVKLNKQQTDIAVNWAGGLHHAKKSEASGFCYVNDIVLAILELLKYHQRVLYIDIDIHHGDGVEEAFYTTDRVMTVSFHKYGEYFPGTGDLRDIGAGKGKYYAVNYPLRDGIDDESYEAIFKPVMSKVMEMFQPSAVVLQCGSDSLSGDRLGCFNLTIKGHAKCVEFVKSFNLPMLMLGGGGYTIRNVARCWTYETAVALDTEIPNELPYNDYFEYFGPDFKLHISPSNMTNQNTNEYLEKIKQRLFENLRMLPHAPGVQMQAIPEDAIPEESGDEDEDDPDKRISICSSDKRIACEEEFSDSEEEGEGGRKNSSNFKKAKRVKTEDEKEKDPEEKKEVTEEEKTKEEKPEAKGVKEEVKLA

As for `Cn1cc(-c2ccc(C(=O)Nc3ccccc3N)nc2)c2cc[nH]c2c1=O` [NB500], the IC50 in the assay with HCC2429 cells was determined as 220 ± 20 nM; in the assay on PaTu8988T cells, 3200 ± 400 nM. The ΔTm at 10 µM is 4.2 ± 0.4 °C on BRD4 BD1 [1] (10 μM compound, 2 μM protein, read-out: DSF ΔTm BRD4 BD1) and 4.7 ± 0.4 °C at BRD4 BD2 (10 μM compound, 2 μM protein, read-out: DSF ΔTm BRD4 BD2). Also, the EC50 at BRD4 BD1 [2] was 240 ± 20 nM; at HDAC1 (intact cells), 4800 ± 2300 nM; at HDAC2 (intact cells), 2500 ± 700 nM; on HDAC3, over 50000 nM.
With `Cn1cc(-c2ccc(C(=O)Nc3cc(-c4ccccc4)ccc3N)nc2)c2cc[nH]c2c1=O` [NB512], the IC50 was determined as 420 ± 50 nM in the assay with HCC2429 cells and 3600 ± 400 nM in the assay with PaTu8988T cells. Besides, the concentration giving a half-maximal response (EC50) at BRD4 BD1 [2] is 360 ± 130 nM; on HDAC1 (intact cells), 110 ± 30 nM; at HDAC1 (lysed-mode), 27 nM; on HDAC2 (intact cells), 98 nM and 100 nM; on HDAC2 (lysed-mode), 37 nM; on HDAC3, 13600 ± 4800 nM.
In the case of `Cn1cc(-c2ccc(C(=O)Nc3ccccc3N)cc2)c2cc[nH]c2c1=O` [NB462], the values for the 50% inhibitory concentration (IC50) in the assay with HCC2429 cells and with PaTu8988T cells were 400 ± 30 nM and 2700 ± 300 nM, respectively. At BRD4 BD1 [1] (10 μM compound, 2 μM protein), the “DSF ΔTm BRD4 BD1” value amounted to 3.9 ± 0.4 K. In addition, the thermal shift (ΔTm) at 10 µM on BRD4 BD1 [1] (read-out: DSF ΔTm BRD4 BD1, 10 μM compound, 2 μM protein) fell in the range of 4 to 5 °C; at BRD4 BD2 (read-out: DSF ΔTm BRD4 BD2, 10 μM compound, 2 μM protein), 4 to 5 °C. Also, the “Mean Tm BRD4 (1), bromodomain panel” value at BRD4 BD1 [1] (10 μM compound) was 3.6 ± 0.1 K. In addition, the “DSF ΔTm BRD4 BD2” value at BRD4 BD2 (10 μM compound, 2 μM protein) turned out to be 4.5 ± 0.1 K. For the same compound, the “Mean Tm BRD4 (2), bromodomain panel” value on BRD4 BD2 (10 μM compound) is 4.6 ± 0.1 K. Further, the EC50 at BRD4 BD1 [2] came out at 250 ± 20 nM; on HDAC1 (intact cells), 2600 ± 1100 nM; on HDAC2 (intact cells), 1600 ± 700 nM; on HDAC3, 32000 ± 16000 nM.
Take `Cn1cc(-c2ccc(C(=O)Nc3cc(-c4ccccc4)ccc3N)cc2)c2cc[nH]c2c1=O` [NB503]: the half-maximal inhibitory concentration (IC50) in the assay on HCC2429 cells was determined as 630 ± 80 nM; in the assay with PaTu8988T cells, 2800 ± 200 nM. For the same compound, the “Mean Tm BRD4 (1), bromodomain panel” value on BRD4 BD1 [1] (10 μM compound) is 5.5 ± 0.1 K. In addition, at BRD4 BD2 (10 μM compound), the “Mean Tm BRD4 (2), bromodomain panel” value is recorded as 5.3 ± 0.2 K. Also, the EC50 turned out to be 420 ± 110 nM on BRD4 BD1 [2], 190 ± 30 nM at HDAC1 (intact cells), 360 ± 120 nM on HDAC2 (intact cells) and 6500 ± 2800 nM at HDAC3.
